Data on ten compounds can be found in patent US9932338B2, “Compounds having muscarinic receptor antagonist and BETA2 adrenergic receptor agonist activity” (CHIESI FARMACEUTICI S.P.A., priority 2015, dated 2018).

pKi: −log10 of the molar value.

A word on the pKi: it is the negative decadic logarithm of the Ki, by convention in mol/L.

The target of one test is T1, Human β2 adrenoceptor (Homo sapiens, UniProt P07550).
T1 construct: purchased Perkin Elmer
Nature of the test: β2 adrenoceptor radioligand binding assay. The note with it: human β2 adrenoceptor membranes, 125-I cyanopindolol; Ki from IC50 by Cheng and Prusoff; read-out: B2 binding affinity (Ki class). As for the experimental part:
Example. β2 Adrenoceptor Radioligand Binding Assay
Human β2 adrenoceptor membranes (7.5 ug/well) from Perkin Elmer were incubated with 0.3 nM 125-I Cyanopindolol with or without test compounds, or a saturating concentration of s-propranolol (2 μM) for the determination of non-specific binding. The assay was carried out in 96-well polypropylene plates in a volume of 200 ul. The assay buffer used was 25 mM HEPES, 0.5% BSA (w/v), 1 mM EDTA, 0.02% ascorbic acid (v/v), (pH 7.4). The final assay concentration of DMSO was 0.5% (v/v). The plates were sealed and incubated for 1 hour at room temperature on an orbital shaker (slow speed). Membranes were harvested onto 96-well unifilter GF/C filter plates pre-treated with 0.5% polyethyleneimine (v/v), using a filter manifold, washed six times with 200 μl of wash buffer containing 10 mM HEPES and 500 mM NaCl. The plates were dried before addition of 50 μl of microscint-0, sealed then read in a Trilux Microbeta scintillation counter. IC50 values are determined from competition curves using a non-linear curve fitting program. Ki values were calculated from IC50 values by the Cheng and Prusoff equation.

The next test concerns the target T2, Human M3 receptor (Homo sapiens, UniProt P20309).
T2 construct: purchased Perkin Elmer
Nature of the test: M3 receptor radioligand binding assay. The note with it: human M3 receptor membranes, [N-methyl-3H] scopolamine methyl chloride; Ki from IC50 by Cheng and Prusoff; read-out: M3 binding affinity (Ki class). As for the experimental part:
Example. M3 Receptor Radioligand Binding Assay
The assay was carried out in 96-well polypropylene plates in a volume of 250 ul. […] The final assay concentration of DMSO was 0.5% (v/v). The plates were sealed and incubated for 2 hours at room temperature on an orbital shaker (slow speed). Membranes were harvested onto 96-well unifilter GF/C filter plates pre-treated with 0.5% polyethyleneimine (v/v), using a filter manifold, washed four times with 200 μl of assay buffer. The plates were dried before addition of 50 μl of microscint-0, sealed then read in a Trilux Microbeta scintillation counter. IC50 values are determined from competition curves using a non-linear curve fitting program. Ki values were calculated from IC50 values by the Cheng and Prusoff equation.

T2 sequence (P20309 whole entry): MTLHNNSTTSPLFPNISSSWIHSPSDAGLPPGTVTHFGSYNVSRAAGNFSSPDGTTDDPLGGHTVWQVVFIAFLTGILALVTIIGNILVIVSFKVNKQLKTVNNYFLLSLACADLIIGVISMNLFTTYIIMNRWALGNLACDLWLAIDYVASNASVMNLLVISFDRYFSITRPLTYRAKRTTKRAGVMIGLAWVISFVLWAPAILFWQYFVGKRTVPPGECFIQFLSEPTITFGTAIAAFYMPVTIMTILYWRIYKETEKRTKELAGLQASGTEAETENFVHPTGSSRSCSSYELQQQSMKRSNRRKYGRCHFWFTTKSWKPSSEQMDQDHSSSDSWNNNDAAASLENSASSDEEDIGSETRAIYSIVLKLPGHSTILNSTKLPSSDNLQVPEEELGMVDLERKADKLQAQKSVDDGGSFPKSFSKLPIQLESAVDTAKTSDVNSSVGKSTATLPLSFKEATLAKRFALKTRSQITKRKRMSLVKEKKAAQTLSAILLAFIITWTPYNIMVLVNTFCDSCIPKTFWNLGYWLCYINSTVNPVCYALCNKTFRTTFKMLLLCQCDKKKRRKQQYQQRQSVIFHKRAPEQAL
T1 sequence (P07550 whole entry): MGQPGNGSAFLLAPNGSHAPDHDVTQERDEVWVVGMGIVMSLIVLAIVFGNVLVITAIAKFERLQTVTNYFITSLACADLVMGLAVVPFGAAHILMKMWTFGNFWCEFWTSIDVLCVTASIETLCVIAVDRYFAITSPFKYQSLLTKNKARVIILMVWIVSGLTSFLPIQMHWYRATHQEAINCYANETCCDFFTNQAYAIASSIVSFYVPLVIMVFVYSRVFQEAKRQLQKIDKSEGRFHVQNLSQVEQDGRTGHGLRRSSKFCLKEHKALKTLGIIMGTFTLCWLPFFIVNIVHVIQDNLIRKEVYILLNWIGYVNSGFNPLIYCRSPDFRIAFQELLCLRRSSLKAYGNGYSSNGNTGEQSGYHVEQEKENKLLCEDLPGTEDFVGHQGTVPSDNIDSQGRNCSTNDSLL

`O=C(NC1(C(=O)O[C@H]2CN3CCC2CC3)CCc2ccccc21)c1cccc(COCCCCNC[C@H](O)c2ccc(O)c3[nH]c(=O)ccc23)c1` (stereo partly drawn) [Compound 12, (R)-quinuclidin-3-yl 1-(3-((4-(((R)-2-hydroxy-2-(8-hydroxy-2-oxo-1,2-dihydroquinolin-5-yl)ethyl)amino)butoxy)methyl)benzamido)-2,3-dihydro-1H-indene-1-carboxylate]: the results for the pKi on Human β2 adrenoceptor and on Human M3 receptor were below 8.00 and 8.00 to 9.00, respectively.
For `O=C(NC1(C(=O)O[C@H]2CN3CCC2CC3)Cc2ccccc2C1)c1cccc(OCCCCCNC[C@H](O)c2ccc(O)c3[nH]c(=O)ccc23)c1` [Compound 13, (R)-quinuclidin-3-yl 2-(3-((5-(((R)-2-hydroxy-2-(8-hydroxy-2-oxo-1,2-dihydroquinolin-5-yl)ethyl)amino)pentyl)oxy)benzamido)-2,3-dihydro-1H-indene-2-carboxylate] the same measures were 8.00 to 9.00 and above 9.00.
For the compound `O=C(NCCCCNC[C@H](O)c1ccc(O)c2[nH]c(=O)ccc12)c1ccc(CNC2(C(=O)O[C@H]3CN4CCC3CC4)Cc3ccccc3C2)s1` [Compound 14, (R)-quinuclidin-3-yl 2-(((5-((4-(((R)-2-hydroxy-2-(8-hydroxy-2-oxo-1,2-dihydroquinolin-5-yl)ethyl)amino)butyl)carbamoyl)thiophen-2-yl)methyl)amino)-2,3-dihydro-1H-indene-2-carboxylate], the pKi was 8.00 to 9.00 at Human β2 adrenoceptor and above 9.00 on Human M3 receptor.
For `O=C(NCCCCNC[C@H](O)c1ccc(O)c2[nH]c(=O)ccc12)c1ccc(CNC2(C(=O)OCC3CCN(Cc4cccc(O)c4)CC3)CCc3ccccc32)s1` (stereo partly drawn) [Compound 15, (1-(3-hydroxybenzyl)piperidin-4-yl)methyl 1-(((5-((4-(((R)-2-hydroxy-2-(8-hydroxy-2-oxo-1,2-dihydroquinolin-5-yl)ethyl)amino)butyl)carbamoyl)thiophen-2-yl)methyl)amino)-2,3-dihydro-1H-indene-1-carboxylate] the same measures were 8.00 to 9.00 and above 9.00.
The matching figures for `O=C(NCCCCNC[C@H](O)c1ccc(O)c2[nH]c(=O)ccc12)c1ccc(CNC2(C(=O)OCC3CCN(Cc4ccccc4)CC3)CCc3ccccc32)s1` (stereo partly drawn) [Compound 16, (1-benzylpiperidin-4-yl)methyl 1-(((5-((4-(((R)-2-hydroxy-2-(8-hydroxy-2-oxo-1,2-dihydroquinolin-5-yl)ethyl)amino)butyl)carbamoyl)thiophen-2-yl)methyl)amino)-2,3-dihydro-1H-indene-1-carboxylate]: 8.00 to 9.00 and above 9.00.
The matching figures for `O=C(NCCCCNC[C@H](O)c1ccc(O)c2[nH]c(=O)ccc12)c1ccc(CNC2(C(=O)OCC3CCN(Cc4cccs4)CC3)CCc3ccccc32)s1` (stereo partly drawn) [Compound 17, (1-(thiophen-2-ylmethyl)piperidin-4-yl)methyl 1-(((5-((4-(((R)-2-hydroxy-2-(8-hydroxy-2-oxo-1,2-dihydroquinolin-5-yl)ethyl)amino)butyl)carbamoyl)thiophen-2-yl)methyl)amino)-2,3-dihydro-1H-indene-1-carboxylate]: below 8.00 and above 9.00.
In the case of `O=C(Cc1ccc(CC(=O)NC2(C(=O)O[C@H]3CN4CCC3CC4)CCc3ccccc32)cc1)Nc1ccc(CNC[C@H](O)c2ccc(O)c3[nH]c(=O)ccc23)cc1` (stereo partly drawn) [Compound 18, (R)-quinuclidin-3-yl 1-(2-(4-(2-((4-((((R)-2-hydroxy-2-(8-hydroxy-2-oxo-1,2-dihydroquinolin-5-yl)ethyl)amino)methyl)phenyl)amino)-2-oxoethyl)phenyl)acetamido)-2,3-dihydro-1H-indene-1-carboxylate], the figures for the pKi on Human β2 adrenoceptor and at Human M3 receptor were below 8.00 and 8.00 to 9.00, respectively.
Consider `O=C(NC1(C(=O)O[C@H]2CN3CCC2CC3)CCc2ccccc21)c1ccc(OCc2ccc(CNC[C@H](O)c3ccc(O)c4[nH]c(=O)ccc34)cc2)cc1` (stereo partly drawn) [Compound 19, (R)-quinuclidin-3-yl 1-(4-((4-((((R)-2-hydroxy-2-(8-hydroxy-2-oxo-1,2-dihydroquinolin-5-yl)ethyl)amino)methyl)benzyl)oxy)benzamido)-2,3-dihydro-1H-indene-1-carboxylate], for which the results for the negative-log Ki (pKi) on Human β2 adrenoceptor and at Human M3 receptor were below 8.00 and 8.00 to 9.00, respectively.
For `O=C(O[C@H]1CN2CCC1CC2)C1(NCc2cccc(OCc3ccc(CNC[C@H](O)c4ccc(O)c5[nH]c(=O)ccc45)cc3)c2)CCc2ccccc21` (stereo partly drawn) [Compound 20, (R)-quinuclidin-3-yl 1-((3-((4-((((R)-2-hydroxy-2-(8-hydroxy-2-oxo-1,2-dihydroquinolin-5-yl)ethyl)amino)methyl)benzyl)oxy)benzyl)amino)-2,3-dihydro-1H-indene-1-carboxylate] the same measures were above 9.00 and 8.00 to 9.00.
The matching figures for `O=C(O[C@H]1CN2CCC1CC2)C1(NCc2cccc(OCc3cccc(OCCCCNC[C@H](O)c4ccc(O)c5[nH]c(=O)ccc45)c3)c2)CCc2ccccc21` (stereo partly drawn) [Compound 21, (R)-quinuclidin-3-yl 1-((3-((3-(4-(((R)-2-hydroxy-2-(8-hydroxy-2-oxo-1,2-dihydroquinolin-5-yl)ethyl)amino)butoxy)benzyl)oxy)benzyl)amino)-2,3-dihydro-1H-indene-1-carboxylate]: above 9.00 and above 9.00.
